Consider twelve molecules from US20240000950A1, “THERAPEUTIC CURE-PRO COMPOUNDS FOR TARGETED DEGRADATION OF BET DOMAIN PROTEINS, AND METHODS OF MAKING AND USING THEM” (CORNELL UNIVERSITY, priority 2020, published 2024).

Experiment [1] concerns MV-4-11 cells. The experiment in a line: CellTiter-Glo cell viability, MV-4-11 cells. In kind it is cell-based. As to the method: All cell lines were purchased from ATCC or DSMZ and grown at 37° C. with 5% C02. Human HeLa cells were cultured in complete growth medium (Dulbecco's modified Eagle's medium (DMEM) supplemented with 10% FBS); MCF7 cells were cultured in complete growth medium (Dulbecco's modified Eagle's medium (DMEM) supplemented with 10% FBS and 0.01 mg/ml human recombinant insulin (Sigma Aldrich); Namalwa and MOLM-13 cells were cultured in complete growth medium (RPMI 1640 medium supplemented with 10% FBS); MV-4-11 were cultured in complete growth medium (Iscove's Modified Dulbecco's medium, supplemented with 10% FBS); HCT116 cells were cultured in complete growth medium (McCoy's 5a Medium supplemented with 10% FBS). For cellular degradation of BRD4 studies, cells were seeded in a 12-well plate at 70-80% confluency, allowed to attach overnight, and incubated with the indicated compounds for the indicated time. When indicated, a 15-minute pretreatment with 10 μM pomalidomide, 10 μM VHL298, 10 μM Nutlin3a, 1 μM MG-132 or 1 μM Carfilzomib was performed before the addition of CURE-PROs. For washout studies, after CURE-PRO treatment, media was aspirated and incubated with complete medium for the indicated time before lysis.
CellTiter-Glo® 2.0 Cell Viability Assay (Promega) was carried out following the manufacturer's recommendations. Cells were seeded at a density of 1000 cells/well in a white 96 well plates (Corning, #3917) in a total volume of 100 μl with respective monomers, combinations of BRD ligands together with E3 ligase ligands or vehicle control treatment. After a 72 h incubation, 100 ul of the CellTiter-Glo® substrate was added per well and luminescence was read on a Spectramax M5 (Molecular Devices). Dose-response curves were generated using Graphpad Prism software.
MV-4-11 cells (5×104) were treated for 24 hours with the sample compounds solubilized in DMSO. The compounds were added at 1 nM-100 μM each. Cellular viability was determined using the CellTiter-Glo® Luminescent Cell Viability Assay (Promega) described above. FIGS. 19-22 depict the CURE-PRO-mediated loss of cellular viability for BRD monomers (JQ1 derivatives comprising of catechol linkers), and CRBN ligand, 8049 (pomalidomide derivatives comprising boronic acid linkers) combined in a 1:1 ratio.
MV-4-11 cells (1×104) were treated for 72 hours with the compounds solubilized in DMSO. Compounds were added at 10 nM-100 μM each. Cellular viability was determined using the CellTiter-Glo® Luminescent Cell Viability Assay (Promega) described above. FIGS. 47-54 depict the CURE-PRO-mediated loss of cellular viability for BRD monomers (JQ1 derivatives comprising of boronic acid linkers), and CRBN ligands, 8046, 8047, and 8066 (pomalidomide derivatives comprising diol linkers) combined in a 1:1 ratio.
On the technique in general: ATP-based viability assays read luminescence as a measure of living cells.

Experiment [2] has as its target BRD4 (Homo sapiens, UniProt O60885). The experiment in a line: Summary of E3 ligase directed degradation of BRD4, estimated from Western Blot or WES (Tables 1-6). The arrangement: endogenous in cells; host or cells: HeLa, MCF7 or HCT116. In kind it is cell-based. Particulars: for Degradation of BRD4, combination with CRBN ligand [drawing 457]: aryl-boronic acid-containing CRBN ligand drawn as drawing 457 (by the text apparently 8048). As to the method: HeLa, MCF7, or HCT116 cells (2.5-3×10^6) were treated for 24 hours with the indicated compounds solubilized in DMSO. The cells were washed in ice-cold PBS and were then lysed in RIPA lysis buffer (150 mM NaCl, 5 mM EDTA, 1% NP-40, 0.5% sodium deoxycholate, 0.1% SDS, 50 mM Tris, pH 8.0) with Roche protease inhibitor complete cocktail and phosphatase inhibitors (10 mM sodium fluoride, 10 mM sodium pyrophosphate, 1 mM sodium orthovanadate and 20 mM β-glycerophosphate). The total protein concentrations were determined by Bradford Protein Assay and 10-20 μg of protein was loaded onto 4-15% Tris-Glycine gradient gels (Biorad). After standard gel electrophoresis, the separated proteins were transferred to PVDF membrane by wet transfer. The immunoblots were then blocked for 1 hour in 5% skim milk in TBST or 5% BSA in TBST, according to manufacturer's instructions, before an overnight incubation at 4° C. with indicated antibodies and membranes. Membranes were then incubated with the appropriate horseradish peroxidase-conjugated secondary antibodies (1:5,000 dilution) for 1 h at room temperature and the bands were visualized using the Clarity Max Western ECL Substrate (Biorad) and the ChemiDoc Imaging System (Biorad). Signal was detected with ECL Western Blotting Substrate (Pierce) and X-ray film processed with a Konica SRX-101 X-ray film processor or captured by Bio-Rad's Chemidoc Imaging system.
WES Simple analysis was performed on WES system (ProteinSimple-Biotechne) according to the manufacturer's instructions. Total protein concentrations of cell lysates were determined by the Pierce BCA kit (Thermo Fisher). 3 μL of 0.3 μg/uL of the protein lysate was loaded onto a 12- to 230-kDa WES assay plate (ProteinSimple) where 300 nL sample was withdrawn through a capillary, subjected to electrophoretic separation of proteins by size, and followed by the simultaneous, HRP-based detection of proteins using the Anti-Rabbit Detection Module (Proteinsimple: #DM-001). The electropherograms were checked then the automatic peak detection was manually corrected if it was required.
A black check mark indicates efficacy of 30% to 70% or higher protein degradation.

The mark [3] stands for this setting: 72 h, 10 nM-100 μM, cotreated 1:1 with each of CRBN ligands 8066, 8046 and 8047, compared to monomers alone.

Entries after “also recorded” stand apart in the source; their conditions may differ.

With `CCNC(=O)C[C@@H]1N=C(c2ccc(Cl)cc2)c2cc(OCCCCC(=O)Nc3cccc(B(O)O)c3)ccc2-n2c(C)nnc21` [BRD-E20, (3-(5-(((4S)-6-(4-chlorophenyl)-4-(2-(ethylamino)-2-oxoethyl)-1-methyl-4H-benzo[f][1,2,4]triazolo[4,3-a][1,4]diazepin-8-yl)oxy)pentanamido)phenyl)boronic acid], the “toxicity / loss of cellular viability (CellTiter-Glo)” value (“toxicity / loss of cellular viability” for short) in experiment [1] (setting [3]) is reported as “reduced viability; also recorded: increased toxicity”. Besides, the “Degradation of BRD4, combination with CRBN ligand [drawing 422]” value in experiment [2] (Table 1, CRBN ligand drawn as drawing 422 (by the text apparently 8066)) was “✓ (A black check mark indicates efficacy of 30% to 70% or higher protein degradation)”. In addition, in experiment [2] (Table 1, aromatic 1,2-diol- or hindered cis-1,2-diol-containing CRBN ligand drawn as drawing 397 (by the text apparently 8046)), the “Degradation of BRD4, combination with CRBN ligand [drawing 397]” value was “✓ (A black check mark indicates efficacy of 30% to 70% or higher protein degradation)”. In addition, in experiment [2] (Table 2, aromatic 1,2-diol-containing MDM2 ligand drawn as drawing 430 (by the text apparently 8313)), the “Degradation of BRD4, combination with MDM2 ligand [drawing 430]” value is “✓ (A black check mark indicates efficacy of 30% to 70% or higher protein degradation)”. In addition, the “Degradation of BRD4, combination with MDM2 ligand [drawing 431]” value in experiment [2] (Table 2, aromatic 1,2-diol-containing MDM2 ligand drawn as drawing 431 (by the text apparently 8314)) is recorded as “✓ (A black check mark indicates efficacy of 30% to 70% or higher protein degradation)”. Besides, in experiment [2] (Table 3, aromatic 1,2-diol-containing VHL ligand drawn as drawing 442 (by the text apparently 8305)), the “Degradation of BRD4, combination with VHL ligand [drawing 442]” value is on record as “✓ (A black check mark indicates efficacy of 30% to 70% or higher protein degradation)”.

With `COc1ccc2c(c1)C(c1ccc(Cl)cc1)=N[C@@H](CC(=O)Nc1cccc(B(O)O)c1)c1nnc(C)n1-2` [BRD-E73, (3-(2-((4S)-6-(4-chlorophenyl)-8-methoxy-1-methyl-4H-benzo[f][1,2,4]triazolo[4,3-a][1,4]diazepin-4-yl)acetamido)phenyl)boronic acid], the “toxicity / loss of cellular viability” value in experiment [1] (setting [3]) is on record as “reduced viability; also recorded: increased toxicity”.

Turning to `COc1ccc2c(c1)C(c1ccc(Cl)cc1)=N[C@@H](CC(=O)NCCCCCNC(=O)c1cccc(O)c1O)c1nnc(C)n1-2` [BRD-N8, N-(5-(2-((4S)-6-(4-chlorophenyl)-8-methoxy-1-methyl-4H-benzo[f][1,2,4]triazolo[4,3-a][1,4]diazepin-4-yl)acetamido)pentyl)-2,3-dihydroxybenzamide], the “toxicity / loss of cellular viability” value in experiment [1] (1 nM-100 μM, cotreated 1:1 with CRBN ligand 8049) is listed as “a concentration-dependent loss in cellular viability was observed; also recorded: increased toxicity”.

Consider `CCNC(=O)C[C@@H]1N=C(c2ccc(Cl)cc2)c2cc(OCCOCCNC(=O)c3ccc(O)c(O)c3)ccc2-n2c(C)nnc21` [BRD-N38, N-(2-(2-(((4S)-6-(4-chlorophenyl)-4-(2-(ethylamino)-2-oxoethyl)-1-methyl-4H-benzo[f][1,2,4]triazolo[4,3-a][1,4]diazepin-8-yl)oxy)ethoxy)ethyl)-3,4-dihydroxybenzamide], for which, in experiment [2] (Table 4), the “Degradation of BRD4, combination with CRBN ligand [drawing 457]” value (from here on “Degradation of BRD4 … [drawing 457]”) is given as “✓ (A black check mark indicates efficacy of 30% to 70% or higher protein degradation)”.

`CCNC(=O)C[C@@H]1N=C(c2ccc(Cl)cc2)c2cc(OCCOCCOCCNC(=O)c3ccc(O)c(O)c3)ccc2-n2c(C)nnc21` [BRD-N40]: the “Degradation of BRD4, combination with VHL ligand [drawing 465]” value in experiment [2] (Table 6, aryl-boronic acid-containing VHL ligand drawn as drawing 465) is “✓ (A black check mark indicates efficacy of 30% to 70% or higher protein degradation)”.

Turning to `COc1ccc2c(c1)C(c1ccc(Cl)cc1)=N[C@@H](CC(=O)NCCOCCOCCOCCNC(=O)c1ccc(O)c(O)c1)c1nnc(C)n1-2` [BRD-N44], in experiment [2] (Table 4), the “Degradation of BRD4 … [drawing 457]” value is recorded as “✓ (A black check mark indicates efficacy of 30% to 70% or higher protein degradation)”.

Take `CCNC(=O)C[C@@H]1N=C(c2ccc(Cl)cc2)c2cc(-c3ccc4cc(O)c(O)cc4c3)ccc2-n2c(C)nnc21` [BRD-N67]: the “Degradation of BRD4 … [drawing 457]” value in experiment [2] (Table 4) is listed as “✓ (A black check mark indicates efficacy of 30% to 70% or higher protein degradation)”. In experiment [2] (Table 4, aryl-boronic acid-containing CRBN ligand drawn as drawing 458 (by the text apparently 8049)), the “Degradation of BRD4, combination with CRBN ligand [drawing 458]” value is “✓ (A black check mark indicates efficacy of 30% to 70% or higher protein degradation)”.

As to `COc1ccc2c(c1)C(c1ccc(Cl)cc1)=N[C@@H](CC(=O)Nc1ccc(O)c(O)c1)c1nnc(C)n1-2` [BRD-N68], the “Degradation of BRD4 … [drawing 457]” value in experiment [2] (Table 4) is listed as “✓ (A black check mark indicates efficacy of 30% to 70% or higher protein degradation)”.

Consider `COc1ccc2c(c1)C(c1ccc(Cl)cc1)=N[C@@H](CC(=O)NCCOCCOCCOCCOCCNC(=O)c1ccc(O)c(O)c1)c1nnc(C)n1-2` [BRD-N69], for which, in experiment [2] (Table 4), the “Degradation of BRD4 … [drawing 457]” value was “✓ (A black check mark indicates efficacy of 30% to 70% or higher protein degradation)”.

For `CCNC(=O)C[C@@H]1N=C(c2ccc(Cl)cc2)c2cc(OCCOCCOCCOCCOCCOCCNC(=O)c3ccc(O)c(O)c3)ccc2-n2c(C)nnc21` [BRD-N70, N-(17-(((4S)-6-(4-chlorophenyl)-4-(2-(ethylamino)-2-oxoethyl)-1-methyl-4H-benzo[f][1,2,4]triazolo[4,3-a][1,4]diazepin-8-yl)oxy)-3,6,9,12,15-pentaoxaheptadecyl)-3,4-dihydroxybenzamide], the “Degradation of BRD4 … [drawing 457]” value in experiment [2] (Table 4) is “✓ (A black check mark indicates efficacy of 30% to 70% or higher protein degradation)”.

In the case of `CCNC(=O)C[C@@H]1N=C(c2ccc(Cl)cc2)c2cc(OCCOCCOCCOCCOCCOCCNC(=O)c3cccc(O)c3O)ccc2-n2c(C)nnc21` [BRD-N71, N-(17-(((4S)-6-(4-chlorophenyl)-4-(2-(ethylamino)-2-oxoethyl)-1-methyl-4H-benzo[f][1,2,4]triazolo[4,3-a][1,4]diazepin-8-yl)oxy)-3,6,9,12,15-pentaoxaheptadecyl)-2,3-dihydroxybenzamide], in experiment [2] (Table 4), the “Degradation of BRD4 … [drawing 457]” value is recorded as “✓ (A black check mark indicates efficacy of 30% to 70% or higher protein degradation)”. For the same molecule, the “Degradation of BRD4, combination with MDM2 ligand [drawing 464]” value in experiment [2] (Table 5, aryl-boronic acid-containing MDM2 ligand drawn as drawing 464 (apparently 8312)) is reported as “✓ (A black check mark indicates efficacy of 30% to 70% or higher protein degradation)”.

Consider `O=C1CCC(N2C(=O)c3cccc(CNC(=O)c4cccc(B(O)O)c4)c3C2=O)C(=O)N1` (stereo not shown) [compound 8049], for which the “loss of cellular viability (CellTiter-Glo)” value in experiment [1] (1 nM-100 μM, monomer alone) is “little loss of viability was observed”.
